Results reported in patent US11352339B2 (MISSION THERAPEUTICS LIMITED, priority 2016, dated 2022).

The compounds below were run against USP30 (Homo sapiens (Human), UniProt Q70CQ3) (assay: USP30 Biochemical IC50 Assay). Conditions: fluorescence polarisation, TAMRA labelled peptide linked to ubiquitin; 30 min pre-incubation, read after 2 h; read-out: IC50 range.
Method in brief: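 Fluorescence polarisation cleavage assay, duplicate wells: substrate is a TAMRA peptide joined to ubiquitin by an iso-peptide bond (50 nM), added after 30 min room-temperature compound–enzyme incubation. Readings at 540/590 nm immediately and at 2 h.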

USP30, sequence (Q70CQ3 57-517): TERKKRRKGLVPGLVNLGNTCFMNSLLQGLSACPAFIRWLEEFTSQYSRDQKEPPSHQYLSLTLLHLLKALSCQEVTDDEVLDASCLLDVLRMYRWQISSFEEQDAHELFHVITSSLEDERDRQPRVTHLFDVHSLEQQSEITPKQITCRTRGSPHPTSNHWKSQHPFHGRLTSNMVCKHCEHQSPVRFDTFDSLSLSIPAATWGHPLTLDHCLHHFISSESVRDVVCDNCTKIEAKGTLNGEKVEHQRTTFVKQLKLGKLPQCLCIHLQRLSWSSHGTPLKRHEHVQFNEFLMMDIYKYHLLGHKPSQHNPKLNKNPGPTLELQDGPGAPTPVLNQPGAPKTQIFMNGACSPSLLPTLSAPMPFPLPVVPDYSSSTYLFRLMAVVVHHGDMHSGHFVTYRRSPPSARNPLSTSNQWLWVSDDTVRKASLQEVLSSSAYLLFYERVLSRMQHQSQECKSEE

IC50 | Structure (SMILES)
< 100 nM | N#Cc1cc(-c2cc(-c3nc([C@@H]4CCCN4C#N)no3)ccn2)ccn1 [Example 181, (S)-4-(3-(1-Cyanopyrrolidin-2-yl)-1,2,4-oxadiazol-5-yl)-[2,4′-bipyridine]-2 carbonitrile]
100 to 1000 nM | N#Cc1cc(-c2ccnc(-c3nc([C@@H]4CCCN4C#N)no3)c2)ccn1 [Example 182, (S)-2′-(3-(1-Cyanopyrrolidin-2-yl)-1,2,4-oxadiazol-5-yl)-[4,4′-bipyridine]-2-carbonitrile]
< 100 nM | N#Cc1cc(-c2cccc(-c3nc([C@@H]4CCCN4C#N)no3)n2)ccn1 [Example 183, (S)-6-(3-(1-Cyanopyrrolidin-2-yl)-1,2,4-oxadiazol-5-yl)-[2,4′-bipyridine]-2 carbonitrile]
< 100 nM | N#CN1CCCC1c1noc(-c2ccnc(-c3cccc(OC(F)(F)F)c3)n2)n1 (centres unmarked) [Example 184, 2-(5-(2-(3-(Trifluoromethoxy)phenyl)pyrimidin-4-yl)-1,2,4-oxadiazol-3-yl)pyrrolidine-1-carbonitrile]
100 to 1000 nM | N#Cc1ccc(-c2nccc(-c3nc([C@@H]4CCCN4C#N)no3)n2)cc1 [Example 185, (S)-2-(5-(2-(4-Cyanophenyl)pyrimidin-4-yl)-1,2,4-oxadiazol-3-yl)pyrrolidine-1-carbonitrile]
< 100 nM | N#Cc1cccc(-c2nccc(-c3nc([C@@H]4CCCN4C#N)no3)n2)c1 [Example 186, (S)-2-(5-(2-(3-Cyanophenyl)pyrimidin-4-yl)-1,2,4-oxadiazol-3-yl)pyrrolidine-1-carbonitrile]
100 to 1000 nM | N#Cc1cnn(-c2nccc(-c3nc([C@@H]4CCCN4C#N)no3)n2)c1 [Example 187, (S)-1-(4-(3-(1-Cyanopyrrolidin-2-yl)-1,2,4-oxadiazol-5-yl)pyrimidin-2-yl)-1H-pyrazole-4-carbonitrile]
< 100 nM | N#Cc1cc(-c2nccc(-c3nc([C@@H]4CCCN4C#N)no3)n2)ccn1 [Example 188, (S)-4-(4-(3-(1-Cyanopyrrolidin-2-yl)-1,2,4-oxadiazol-5-yl)pyrimidin-2-yl)picolinonitrile]
100 to 1000 nM | N#Cc1cccc(-c2cc(-c3nc(C4CCCN4C#N)no3)ncn2)c1 (centres unmarked) [Example 189, 2-(5-(6-(3-Cyanophenyl)pyrimidin-4-yl)-1,2,4-oxadiazol-3-yl)pyrrolidine-1-carbonitrile]
100 to 1000 nM | N#Cc1cnn(-c2cccc(-c3nc([C@@H]4CCCN4C#N)no3)c2)c1 [Example 190, (S)-1-(3-(3-(1-Cyanopyrrolidin-2-yl)-1,2,4-oxadiazol-5-yl)phenyl)-1H-pyrazole-4-carbonitrile]
1000 to 10000 nM | N#Cc1cnn(-c2ccnc(-c3nc([C@@H]4CCCN4C#N)no3)c2)c1 [Example 191, (S)-1-(2-(3-(1-Cyanopyrrolidin-2-yl)-1,2,4-oxadiazol-5-yl)pyridin-4-yl)-1H-pyrazole-4-carbonitrile]
1000 to 10000 nM | N#Cc1cnn(-c2cc(-c3nc([C@@H]4CCCN4C#N)no3)ccn2)c1 [Example 193, (S)-1-(4-(3-(1-Cyanopyrrolidin-2-yl)-1,2,4-oxadiazol-5-yl)pyridin-2-yl)-1H-pyrazole-4-carbonitrile]
< 100 nM | N#CN1CCC(c2cc(-c3ccc(-c4ncccn4)cn3)n[nH]2)C1 (centres unmarked) [Example 195, 3-(3-(5-(Pyrimidin-2-yl)pyridin-2-yl)-1H-pyrazol-5-yl)pyrrolidine-1-carbonitrile]
100 to 1000 nM | N#CN1CCC(c2[nH]nc(-c3cccc(N4CCCCC4)n3)c2F)C1 (centres unmarked) [Example 196, 3-(4-Fluoro-3-(6-(piperidin-1-yl)pyridin-2-yl)-1H-pyrazol-5-yl)pyrrolidine-1-carbonitrile]
100 to 1000 nM | N#Cc1cccc(C2CN(c3noc(C4CCN(C#N)C4)n3)C2)c1 (centres unmarked) [Example 197, 3-(3-(3-(3-Cyanophenyl)azetidin-1-yl)-1,2,4-oxadiazol-5-yl)pyrrolidine-1-carbonitrile]
100 to 1000 nM | N#Cc1ccc(C2CN(c3noc(C4CCN(C#N)C4)n3)C2)cc1 (centres unmarked) [Example 198, 3-(3-(3-(4-Cyanophenyl)azetidin-1-yl)-1,2,4-oxadiazol-5-yl)pyrrolidine-1-carbonitrile]
100 to 1000 nM | N#CN1CCC(c2n[nH]c(-c3ccnc(-c4ccccc4)c3)n2)C1 (centres unmarked) [Example 199, 3-(3-(2-Phenylpyridin-4-yl)-1H-1,2,4-triazol-5-yl)pyrrolidine-1-carbonitrile]
100 to 1000 nM | N#Cc1ccc(-c2nccc(-c3nc([C@@H]4CCCN4C#N)no3)n2)cn1 [Example 201, (S)-5-(4-(3-(1-Cyanopyrrolidin-2-yl)-1,2,4-oxadiazol-5-yl)pyrimidin-2-yl)picolinonitrile]
100 to 1000 nM | N#Cc1cnn(-c2cncc(-c3nc([C@@H]4CCCN4C#N)no3)n2)c1 [Example 202, (S)-1-(6-(3-(1-Cyanopyrrolidin-2-yl)-1,2,4-oxadiazol-5-yl)pyrazin-2-yl)-1H-pyrazole-4-carbonitrile]
< 100 nM | N#Cc1cc(-c2cncc(-c3nc([C@@H]4CCCN4C#N)no3)n2)ccn1 [Example 203, (S)-4-(6-(3-(1-Cyanopyrrolidin-2-yl)-1,2,4-oxadiazol-5-yl)pyrazin-2-yl)picolinonitrile]
100 to 1000 nM | N#Cc1cc(-c2cc(-c3nc([C@@H]4CCCN4C#N)no3)cnn2)ccn1 [Example 204, (S)-4-(5-(3-(1-Cyanopyrrolidin-2-yl)-1,2,4-oxadiazol-5-yl)pyridazin-3-yl)picolinonitrile]

Structure (SMILES) | IC50
N#Cc1cccc(-c2cc(-c3nc(C4CCCN4C#N)no3)ccn2)n1 (centres unmarked) [Example 180, 4′-(3-(1-Cyanopyrrolidin-2-yl)-1,2,4-oxadiazol-5-yl)-[2,2′-bipyridine]-6-carbonitrile] | 100 to 1000 nM
N#CN1CCC(c2cc(-c3ccc(-c4ccccc4)cn3)n[nH]2)C1 (centres unmarked) [Example 194, 3-(5-(5-Phenylpyridin-2-yl)-1H-pyrazol-3-yl)pyrrolidine-1-carbonitrile] | < 100 nM
